Experimental data from patent US20100022639A1, “Methods of Inducing Weight Loss” (The Johns Hopkins University School of Medicine Licensing …, priority 2000, published 2010).

Experiments:
feeding behavior [1] = assay: Food intake after ICV injection of C-75; format: in vivo, mice; conditions: ICV 2 μl at 2.5 or 5 μg/μl, food intake over 2 and 4 hours
Description: This model predicts that feeding inhibition by FAS inhibitors should be attenuated by inhibitors of ACC's. To test this, mice were pretreated with the ACC inhibitor TOFA or vehicle by ICV injection and examined the ability of C-75, administered IP, to inhibit feeding. BALB/c mice were anesthetized with metofane and injected ICV with 2 μg of TOFA or DMSO vehicle. After 2 hours recovery, mice were injected IP with 15 mg C-75/kg or RPMI vehicle and monitored for total food intake over 2 hours. […] In addition, mice were anesthetized and injected ICV with 2 μl of RPMI or C-75 at 2.5 or 5 μg/μl and food intake monitored over 2 (shaded) and 4 (solid) hours. The efficacy of centrally administered TOFA argues for a central (CNS) mechanism of action. ICV administration of C-75 inhibited feeding by 82% (FIG. 5C), supporting the central target action of C-75. FIGS. 5(B) and (C) combine results from 3 experiments with N=3 for each (9 total).

[2] = Body weight of ob/ob mice over two week treatment; format: in vivo; conditions: 22 mg/kg IP every third day, two weeks
Excerpt: The magnitude of this effect is readily evident by inspection of representative C-75 and control treated ob/ob mice.

feeding behavior [3] = assay: Food intake after a single IP injection (metabolic cages); format: in vivo, BALB/c mice; conditions: 15 mg/kg, first 24 hours
Description: (§1) Male BALB/c mice 19-22 g were weighed, treated by a single intra peritoneal (I.P.) injection and housed in metabolic cages. Body weight (FIG. 1.2A) and food intake (FIG. 1.2B) were monitored at 24 hour intervals.
Inhibitors of fatty acid synthesis would be expected to prevent triglyceride accumulation due to inhibition of de novo fatty acid synthesis and impact body weight in this manner. […] However, the dramatic C-75-induced weight loss cannot be accounted for by a blockade of fatty acid/triglyceride biosynthesis. Rather, the weight loss observed in response to C-75 treatment results primarily from an inhibition of feeding. The loss of adipose mass was accompanied by a reduction of lean body mass typical of that observed in fasting. Administration of 15 mg/kg body weight led to a greater than 90% reduction in food intake over the first 24 hours (FIG. 1.2B). Feeding behavior then returned to normal progressively over a 48-72 hour period as the drug effect dissipated. The role of feeding inhibition in C-75 induced weight loss was confirmed by studies in which forced feeding of the drug treated animals largely reversed the observed weight loss.

feeding behavior [4] = assay: Feeding interval in 24 hour fasted mice; format: in vivo; conditions: 30 mg/kg IP, within 20 minutes of treatment
Description: Mice were fasted for 24 hours to induce voracious feeding. Initial feeding interval (time in seconds between food presentation and initiation of feeding) was measured in naive mice (pretreat). Mice were then treated by I.P. injection of 30 mg/kg C-75 or RPMI vehicle and feeding interval determined at 20, 40 and 60 minutes post-injection. Observation was terminated if no feeding was initiated within 1000 see (experimental cut off). Times represent mean +/−SEM, (n=4).
Prior to treatment, all animals fed ravenously within 3 minutes of being offered food.

hepatic malonyl-CoA = assay: Hepatic malonyl-CoA level after dextrose gavage and IP C-75; format: in vivo, BALB/c mice; conditions: 20 mg/kg IP, one hour post-treatment, after 2 g/kg dextrose
Description: (§2) Male BALB/c mice (4 per group) were given 2 g/kg dextrose by oral gavage. After 15 min mice were injected IP with 20 mg/kg C-75 or RPMI vehicle. One hour post-treatment, livers were rapidly removed, frozen and pulverized in liquid nitrogen, HC104 extracted and assayed for malonyl-CoA [J. D. McGarry, M. J. Stark, D. W. Foster., J. Biol. Chem 253, 8291 (1978)]. Intraperitoneal injection of mice with C-75 leads to a 95% reduction in ^14C-acetate incorporation into fatty acids and to a 110% increase in the level of hepatic malonyl-CoA, the principal substrate of FAS. Experiments described in panels B and C were repeated twice.

[5] = Necropsy, histology, plasma alanine aminotransferase and tolerability in treated mice; format: in vivo
Excerpt: Alternatively, the signal from the FAS target tissue to the hypothalamus may be mediated by a humoral signal. This FAS-associated signal appears to be independent of the systemic release of the known feeding inhibitory hormones leptin and insulin, and the pro-inflammatory cytokines tumor necrosis factor-α and interleukin-1β. Nor is it reversed by administration of dexamethasone, a synthetic glucocorticoid.
(§3) The effect of C-75 treatment on feeding behavior and body weight in mice is both rapid and dramatic. A single treatment leads to the loss of as much as 20% of total body weight within 24 hours (FIG. 1.2A). This weight loss occurs in a dose dependent manner and persists for a duration that increases with dose. In all cases, treated animals recover lost body weight after the effect of the drug has dissipated, arguing against induction of a persistent wasting.

[6] = Weight loss of C-75-treated versus fasted mice; format: in vivo, BALB/c mice; conditions: 30 mg/kg, 24 hours, n=7
Excerpt: To determine whether the weight loss is attributable entirely to suppression of feeding, treatment with a dose of C-75 that completely suppresses feeding was compared with fasting. Both fasting and C-75 led to significant weight loss relative to control; however, in many experiments the C-75 treated mice lost more weight than did the fasted animals (FIG. 2A). The normal response to fasting is to reduce energy utilization to limit depletion of energy stores (Loftus, 1999). If C-75 treatment results in a “perceived fed state”, it may allow maintenance of a normal metabolic rate as well as inhibition of feeding.
Male BALB/c mice 19-21 g were preweighed and treated with vehicle or 30 mg/kg C-75 and allowed free access to food, or were denied all access to food (fasted). After 24 hours, mice were weighed. Change from initial body weight is shown in FIG. 2A, expressed as mean +/±SEM (n=7). C-75 treated mice lost 45% more weight than did the fasted animals.

[7] = system: adipose fatty acid synthesis; assay: [U-14C]-acetate labeling of adipose tissue from C-75-treated mice; format: in vivo, BALB/c mice
Description: Female BALB/c mice were treated with 0.6 mg of C-75 in 200 μl RPMI, or vehicle control IP (3 per group). After 3 hours, the animals were killed and approximately 5 mg of adipose tissue was labeled with [U-^14C]-acetate, lipids were extracted and counted, [A. Rashid et al., Am. J. Pathol. 150 (1997)]. […] Values represent mean +/−SEM (*P<0.05).
as §2

[8] = Body weight after a single IP injection; format: in vivo, BALB/c mice
Description: as §3, §1

C=C1C(=O)OC(CCCCCCCC)C1C(=O)O (centres unmarked) [C-75]
inhibition of feeding by ICV administration (feeding behavior [1]): 82% | body weight of ob/ob mice [2]: substantial reduction in the body weight | reduction in food intake (feeding behavior [3]): greater than 90% | feeding initiation in fasted mice (feeding behavior [4]): lost all interest in feeding | increase in the level of hepatic malonyl-CoA (hepatic malonyl-CoA): 110% | tolerability in mice ([5]; single IP treatment): well tolerated | histological analysis of tissues from treated mice ([5]; single IP treatment (not shown)): no indication of adverse pathology | necropsy and histological analysis of all major organs ([5]; treated mice): no adverse pathology | plasma alanine aminotransferase activity ([5]; treated mice): unchanged | more weight lost than fasted animals [6]: 45% | adipose fatty acid synthesis compared to vehicle control ([7]; 0.6 mg C-75 IP, 3 hours, female BALB/c mice): markedly inhibited | reduction in 14C-acetate incorporation into fatty acids ([7]; intraperitoneal injection): 95% | loss of total body weight after a single treatment ([8]; within 24 hours, single IP treatment, 7.5-30 mg/kg): ≤ 20% | loss of total body weight ([8]; within a 24 hour period, BALB/c mice): 10-20%
